Assay results as given in patent publication US20240270809A1, “ORAL GLP RECEPTOR AGONISTS” (priority 2020, published 2024).
Like-named read-outs stand apart in the source and are kept apart here. Positions of bridges follow the written chain, without caps; N, C: chain ends. Non-standard residues stand in square brackets, D forms with d. Residues, ends and D or L forms follow the SMILES beside them. *: point of attachment. Malonyl(2,2-Me2,histaminyl) = CC(C)(C(=O)NCCc1cnc[nH]1)C(=O)*; Ala(1H-tetrazol-5-yl) = N[C@@H](Cc1nnn[nH]1)C(=O)O; αMePhe(2-F) = C[C@](N)(Cc1ccccc1F)C(=O)O; Nle = CCCC[C@H](N)C(=O)O; Aib = CC(C)(N)C(=O)O

How the values were obtained:
mouse GLP2 receptor = target: T1, mouse GLP2 receptor (Mus musculus, UniProt Q5IXF8); assay: cAMP accumulation assay, functional agonism of mouse GLP2 receptor; assay type: cell-based
T1 construct: expressed in transfected cells; host or cells: HEK cells, transient transfection with GeneJuice
T1 sequence (Q5IXF8 1-512): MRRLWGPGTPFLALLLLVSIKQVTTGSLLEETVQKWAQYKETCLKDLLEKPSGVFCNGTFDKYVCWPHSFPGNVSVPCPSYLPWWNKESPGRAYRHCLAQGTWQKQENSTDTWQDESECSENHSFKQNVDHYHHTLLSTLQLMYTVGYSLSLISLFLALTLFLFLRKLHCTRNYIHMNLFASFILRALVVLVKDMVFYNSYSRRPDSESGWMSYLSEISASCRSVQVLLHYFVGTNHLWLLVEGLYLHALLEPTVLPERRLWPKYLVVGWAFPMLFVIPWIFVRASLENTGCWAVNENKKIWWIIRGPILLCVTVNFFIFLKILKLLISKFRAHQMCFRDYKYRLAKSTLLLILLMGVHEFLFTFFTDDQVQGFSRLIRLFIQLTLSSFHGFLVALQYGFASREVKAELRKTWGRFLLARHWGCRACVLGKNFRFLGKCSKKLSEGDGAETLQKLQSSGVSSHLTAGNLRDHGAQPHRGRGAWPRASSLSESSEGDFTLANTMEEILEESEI
Outline: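 Transiently transfected HEK cells (24 h, frozen, 8000/well) in HBSS with 0.5 mM IBMX exposed to compound concentration series for 45 min at 37 °C. cAMP measured by HTRF after lysis and 1 h at RT; pEC50 from four-parameter concentration-response fit.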

mouse GLP1 receptor = target: T2, mouse GLP1 receptor (Mus musculus, UniProt O35659); assay: cAMP accumulation assay, functional agonism of mouse GLP1 receptor; assay type: cell-based
T2 construct: expressed in transfected cells; host or cells: HEK cells, transient transfection with GeneJuice
T2 sequence (O35659 22-463): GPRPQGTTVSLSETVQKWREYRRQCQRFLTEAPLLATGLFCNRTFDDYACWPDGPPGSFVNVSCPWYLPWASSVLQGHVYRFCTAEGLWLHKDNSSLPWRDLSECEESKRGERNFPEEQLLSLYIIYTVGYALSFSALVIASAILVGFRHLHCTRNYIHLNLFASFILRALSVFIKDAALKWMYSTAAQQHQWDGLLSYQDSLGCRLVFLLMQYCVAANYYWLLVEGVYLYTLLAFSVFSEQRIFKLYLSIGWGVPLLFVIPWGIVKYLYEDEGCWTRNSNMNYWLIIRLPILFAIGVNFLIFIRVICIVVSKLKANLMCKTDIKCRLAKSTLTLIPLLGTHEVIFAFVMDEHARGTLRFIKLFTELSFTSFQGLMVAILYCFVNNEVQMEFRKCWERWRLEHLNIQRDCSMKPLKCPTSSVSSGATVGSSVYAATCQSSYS

human GLP1 receptor = target: T3, human GLP1 receptor (Homo sapiens, UniProt P43220); assay: cAMP accumulation assay, functional agonism of human GLP1 receptor; assay type: cell-based; settings: HEK cells infected with human GLP1 receptor BacMam virus, HTRF cAMP; for Emax: HEK293, read-out: Human GLP-1R agonist cAMP Emax; for EC50: read-out: Human GLP-1R agonist cAMP pEC50 (converted)
T3 construct: expressed in transfected cells; host or cells: HEK cells, BacMam virus transduction
Outline: (§1)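 HEK cells transduced for 24 hours with human GLP2 or GLP1 receptor BacMam virus were frozen, then stimulated with agonist in HBSS containing 0.5 mM IBMX. After 45 min at 37° C, cAMP was measured by HTRF after adding detection reagents in lysis buffer.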

human GLP2 receptor = target: T4, human GLP2 receptor (Homo sapiens, UniProt O95838); assay: cAMP accumulation assay, functional agonism of human GLP2 receptor; assay type: cell-based; settings: HEK cells infected with human GLP2 receptor BacMam virus, HTRF cAMP; for Emax: HEK293, read-out: Human GLP-2R agonist cAMP Emax; for EC50: read-out: Human GLP-2R agonist cAMP pEC50 (converted)
T4 construct: expressed in transfected cells; host or cells: HEK cells, BacMam virus transduction
T4 sequence (O95838 1-553): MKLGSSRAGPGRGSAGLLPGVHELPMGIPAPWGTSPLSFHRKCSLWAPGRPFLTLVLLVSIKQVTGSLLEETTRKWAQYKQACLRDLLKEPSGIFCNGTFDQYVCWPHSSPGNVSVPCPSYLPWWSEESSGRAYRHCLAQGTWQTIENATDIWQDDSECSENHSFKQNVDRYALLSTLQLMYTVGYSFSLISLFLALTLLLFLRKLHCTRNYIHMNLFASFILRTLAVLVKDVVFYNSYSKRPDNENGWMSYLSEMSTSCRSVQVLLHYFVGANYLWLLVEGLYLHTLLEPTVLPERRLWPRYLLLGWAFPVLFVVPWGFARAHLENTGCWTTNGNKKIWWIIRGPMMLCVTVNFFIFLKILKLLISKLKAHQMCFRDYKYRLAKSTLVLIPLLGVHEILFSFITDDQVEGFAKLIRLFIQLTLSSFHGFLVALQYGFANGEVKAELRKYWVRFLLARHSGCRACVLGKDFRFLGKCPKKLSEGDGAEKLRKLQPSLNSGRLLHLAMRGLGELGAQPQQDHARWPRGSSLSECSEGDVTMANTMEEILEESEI
Outline: as §1

[1] = Stability of peptides in Fasted-State Simulated Intestinal Fluid (FaSSIF); assay type: in vitro ADME; settings: FaSSIF with 10 mg/ml pancreatin; t=30 mins, 37° C., pH 6.5, 10 mg/ml pancreatin
[2] = HEK293, HEK cells transiently transfected with mouse GLP2 receptor, HTRF cAMP, read-out: Mouse GLP-2R agonist cAMP Emax
[3] = HEK cells transiently transfected with mouse GLP2 receptor, HTRF cAMP, read-out: Mouse GLP-2R agonist cAMP pEC50 (converted)

T3 sequence (P43220 24-463): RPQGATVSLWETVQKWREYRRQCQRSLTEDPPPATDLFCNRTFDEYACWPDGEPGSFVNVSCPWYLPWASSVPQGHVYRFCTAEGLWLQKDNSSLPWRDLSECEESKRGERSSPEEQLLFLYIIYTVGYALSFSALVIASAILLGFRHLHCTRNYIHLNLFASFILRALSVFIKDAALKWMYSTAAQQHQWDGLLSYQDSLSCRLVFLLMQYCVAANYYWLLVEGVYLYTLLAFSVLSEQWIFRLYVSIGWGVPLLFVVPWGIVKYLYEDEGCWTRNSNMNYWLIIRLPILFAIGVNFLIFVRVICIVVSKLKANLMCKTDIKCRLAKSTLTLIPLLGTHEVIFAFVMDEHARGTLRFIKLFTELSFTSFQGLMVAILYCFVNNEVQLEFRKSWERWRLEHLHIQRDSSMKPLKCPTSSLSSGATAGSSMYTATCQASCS

Compound | EC50 (mouse GLP2 receptor) | Emax (mouse GLP2 receptor; HEK293, read-out: Mouse GLP-2R agonist cAMP Emax) | EC50 (mouse GLP1 receptor) | Emax (mouse GLP1 receptor; HEK293, read-out: Mouse GLP-1R agonist cAMP Emax) | Emax (human GLP1 receptor) | EC50 (human GLP1 receptor) | Emax (human GLP2 receptor) | EC50 (human GLP2 receptor) | Emax (mouse GLP2 receptor; [2]) | EC50 (mouse GLP2 receptor; [3]) | remaining at 0.5 h [1]
CCCC[C@H](NC(=O)[C@H](CCC(=O)O)NC(=O)[C@H](CC(=O)O)NC(=O)[C@H](CO)NC(=O)[C@H](Cc1ccccc1)NC(=O)[C@H](CO)NC(=O)CNC(=O)[C@H](Cc1nn[nH]n1)NC(=O)C(C)(C)C(=O)NCCc1c[nH]cn1)C(=O)N[C@H](Cc1ccccc1)C(=O)N[C@H](C(=O)N[C@H](C(=O)N[C@@H](CC(C)C)C(=O)N[C@@H](CC(=O)O)C(=O)N[C@H]1CCC(=O)NCCCC[C@@H](C(=O)N[C@@H](CC(=O)O)C(=O)N[C@@H](Cc2ccccc2)C(=O)N[C@H](C(=O)N[C@@H](CC(N)=O)C(=O)N[C@@H](Cc2c[nH]c3ccccc23)C(=O)N[C@@H](CC(C)C)C(=O)N[C@H](C(=O)N[C@@H](CCC(N)=O)C(=O)N[C@H](C(=O)N[C@@H](CCCCN)C(=O)N[C@H](C(=O)N[C@H](C(=O)N[C@@H](Cc2ccccc2)C(N)=O)[C@@H](C)O)[C@@H](C)CC)[C@@H](C)O)[C@@H](C)CC)[C@@H](C)CC)NC(=O)[C@H](C)NC(=O)[C@H](C)NC(=O)[C@H](CCCCN)NC1=O)[C@@H](C)CC)[C@@H](C)O [Example 96] ({Malonyl(2,2-Me2,histaminyl)}-[Ala(1H-tetrazol-5-yl)]GSFSDE[Nle][dF]TILDEKAAKDFINWLIQTKITF-NH2; lactam 14-18) | 0.794 nM | 101% | 0.794 nM | 96.1% | 96.4% | 0.501 nM | 101% | 6.31 pM |  |  | 
CCCC[C@@H]1NC(=O)[C@H](CCC(=O)O)NC(=O)[C@@H](NC(=O)[C@H](CO)NC(=O)[C@H](Cc2ccccc2)NC(=O)[C@H](CO)NC(=O)CNC(=O)[C@H](Cc2nn[nH]n2)NC(=O)C(C)(C)C(=O)NCCc2c[nH]cn2)CCCCNC(=O)C[C@@H](C(=O)N[C@H](C(=O)N[C@@H](CC(C)C)C(=O)N[C@@H](CC(=O)O)C(=O)N[C@H]2CCC(=O)NCCCC[C@@H](C(=O)N[C@@H](CC(=O)O)C(=O)N[C@@H](Cc3ccccc3)C(=O)N[C@H](C(=O)N[C@@H](CC(N)=O)C(=O)N[C@@H](Cc3c[nH]c4ccccc34)C(=O)N[C@@H](CC(C)C)C(=O)N[C@H](C(=O)N[C@@H](CCC(N)=O)C(=O)N[C@H]3CCC(=O)NCCCC[C@@H](C(N)=O)NC(=O)[C@H]([C@@H](C)O)NC(=O)[C@H]([C@@H](C)CC)NC(=O)[C@H](CCCCN)NC3=O)[C@@H](C)CC)[C@@H](C)CC)NC(=O)[C@H](C)NC(=O)[C@H](C)NC(=O)[C@H](CCCCN)NC2=O)[C@@H](C)CC)NC(=O)[C@@H](Cc2ccccc2)NC1=O [Example 22] ({Malonyl(2,2-Me2,histaminyl)}-[Ala(1H-tetrazol-5-yl)]GSFSKE[Nle][dF]DILDEKAAKDFINWLIQEKITK-NH2; lactam 6-10, 14-18, 27-31 (inferred); C-terminus assumed) |  |  |  |  | 92.7% | 0.398 nM | 104% | 7.94 pM | 94.5% | 1.58 nM | 6.8%
CCCC[C@@H]1NC(=O)[C@H](CCC(=O)O)NC(=O)[C@@H](NC(=O)[C@H](CO)NC(=O)[C@](C)(Cc2ccccc2F)NC(=O)[C@H](CO)NC(=O)[C@@H](C)NC(=O)[C@H](CC(=O)O)NC(=O)C(C)(C)NC(=O)[C@@H](N)Cc2c[nH]cn2)CCCCNC(=O)C[C@@H](C(=O)N[C@H](C(=O)N[C@@H](CC(C)C)C(=O)N[C@@H](CC(=O)O)C(=O)N[C@H]2CCC(=O)NCCCC[C@@H](C(=O)N[C@@H](CC(=O)O)C(=O)N[C@@H](Cc3ccccc3)C(=O)N[C@H](C(=O)N[C@@H](CC(N)=O)C(=O)N[C@@H](Cc3c[nH]c4ccccc34)C(=O)N[C@@H](CC(C)C)C(=O)N[C@H](C(=O)N[C@@H](CCC(N)=O)C(=O)N[C@H]3CCC(=O)NCCCC[C@@H](C(N)=O)NC(=O)[C@H]([C@@H](C)O)NC(=O)[C@H]([C@@H](C)CC)NC(=O)[C@H](CCCCN)NC3=O)[C@@H](C)CC)[C@@H](C)CC)NC(=O)[C@H](C)NC(=O)[C@H](C)NC(=O)[C@H](CCCCN)NC2=O)[C@@H](C)CC)NC(=O)[C@@H](Cc2ccccc2)NC1=O [Example 19] (H-H[Aib]D[dA]S[αMePhe(2-F)]SKE[Nle][dF]DILDEKAAKDFINWLIQEKITK-NH2; lactam 8-12, 16-20, 29-33 (inferred); C-terminus assumed) |  |  |  |  | 95.4% | 0.251 nM | 103% | 10 pM | 101% | 0.794 nM | 12.2%
CCCC[C@@H]1NC(=O)[C@H](CCC(=O)O)NC(=O)[C@@H](NC(=O)[C@H](CO)NC(=O)[C@H](Cc2ccccc2)NC(=O)[C@H](CO)NC(=O)CNC(=O)[C@H](Cc2nn[nH]n2)NC(=O)C(C)(C)C(=O)NCCc2c[nH]cn2)CCCCNC(=O)C[C@@H](C(=O)N[C@H](C(=O)N[C@@H](CC(C)C)C(=O)N[C@@H](CC(=O)O)C(=O)N[C@H]2CCC(=O)NCCCC[C@@H](C(=O)N[C@@H](CC(=O)O)C(=O)N[C@@H](Cc3ccccc3)C(=O)N[C@H](C(=O)N[C@@H](CC(N)=O)C(=O)N[C@@H](Cc3c[nH]c4ccccc34)C(=O)N[C@@H](CC(C)C)C(=O)N[C@H](C(=O)N[C@@H](CCC(N)=O)C(=O)N[C@H](C(=O)N[C@H]3CCC(=O)NCCCC[C@@H](C(=O)N4CCC[C@H]4C(N)=O)NC(=O)[C@H]([C@@H](C)O)NC(=O)[C@H]([C@@H](C)CC)NC3=O)[C@@H](C)O)[C@@H](C)CC)[C@@H](C)CC)NC(=O)[C@H](C)NC(=O)[C@H](C)NC(=O)[C@H](CCCCN)NC2=O)[C@@H](C)CC)NC(=O)[C@@H](Cc2ccccc2)NC1=O [Example 13] ({Malonyl(2,2-Me2,histaminyl)}-[Ala(1H-tetrazol-5-yl)]GSFSKE[Nle][dF]DILDEKAAKDFINWLIQTEITKP-NH2; lactam 6-10, 14-18, 28-31 (inferred); C-terminus assumed) |  |  |  |  | 92.5% | 0.251 nM | 104% | 31.6 pM |  |  | 3.8%
